First: Fc1ccc(-c2cccs2)cc1
Second: Fc1ccc(C2=Nc3cccnc3Nc3ccccc32)cc1
The melting point of the first is lower: 51 to 52 °C for the first, 203 to 205 °C for the second.

First: O=[N+]([O-])c1ccc(NS(=O)(=O)C(F)(F)F)c(OC2CCCCC2)c1
Second: N#CC(CC1CCCCC1)c1ccc(Cl)cc1Cl (stereo not drawn)
The melting point of the first is higher: 93.5 to 95 °C for the first, 58.8 °C for the second.

Compared with Cc1sc(C(=O)NCc2ccc3c(c2)OCO3)cc1NC(=O)NCc1ccccc1, COCCNC(=O)c1cccc(-c2cccc3cc(Cc4cccc(C(C)=O)c4)sc23)c1 is lower in melting point: 194 to 195 °C for the first, 81 to 82 °C for the second.

First: COC(=O)C1=C(c2ccc(OC)cc2)C(c2ccc(OC)cc2)OC1=O (stereo not drawn)
Second: COc1cc2ccc(C(=O)c3ccccc3)cc2cc1OC
The melting point of the first is lower: 107 to 109 °C for the first, 124 to 125 °C for the second.

Compared with COCc1c(OCc2ccccc2)ccc2c1CCCC2=O, CCOc1cc(C(O)c2ccccn2)ccc1OCc1ccccc1 (stereo not drawn) is higher in melting point: 55 to 56 °C for the first, 109 to 110 °C for the second.

Compared with Cc1noc(-c2ccccc2)c1-c1ccc(S(C)(=O)=O)cc1, CC(C)c1nc(-c2ccccc2)c(C(C)C)c(-c2ccc(F)cc2)c1C=O is higher in melting point: 144 to 145 °C for the first, 159 to 160 °C for the second.

First: CCc1nc(NC(=N)N)sc1-c1cccc([N+](=O)[O-])c1
Second: CCOC(=O)Nc1c(C(=O)OC)sc2cc(OC)ccc12
The melting point of the first is higher: 149 to 151 °C for the first, 137 °C for the second.

First: O=C1N=c2cccc(OCCN3CCC(Cc4ccccc4)CC3)c2=N1
Second: ClCCN1CCC(=C(c2ccccc2)c2ccccc2)CC1
The melting point of the first is higher: 153 to 154 °C for the first, 85 to 86 °C for the second.

First: COCCN=Cc1cc(OC)c(OC)cc1[N+](=O)[O-]
Second: COc1cc2c(cc1OC)/C(=C\c1ccc(OCC(=O)OC(C)(C)C)cc1)C(=O)N2
The melting point of the first is lower: 65 to 66 °C for the first, 158 to 160 °C for the second.

Compared with CN(CC(=O)OC(C)(C)C)C[C@@H]1CC(c2ccc(-c3ccc(N4C[C@H](Cn5ccnn5)OC4=O)cc3F)cn2)=NO1, Cc1cc(-c2cc(C(=O)O)c(=O)n(CC=Cc3ccccc3)n2)ccc1F is lower in melting point: 180 °C for the first, 143 to 144 °C for the second.

Compared with COc1ccc(I)c2c1CC(NC(C)=O)CC2 (stereo not drawn), COc1cccc2c1nc(Cl)n2C is lower in melting point: 190 °C for the first, 118 to 119 °C for the second.

Compared with CSc1ccc(-c2c(C)n[nH]c(=O)c2-c2ncc(Cl)cc2Cl)nc1, Cn1c(=O)c(-c2ccc(Cl)cc2Cl)cc2c3cc(-c4ccn[nH]4)ccc3[nH]c21 is higher in melting point: 229 °C for the first, 246 to 250 °C for the second.

First: O=C(O)CCCCc1cc(O)c(O)c(Cl)c1
Second: Cc1ccc(CCCCCCCCCCC(Cl)(Cl)C(=O)O)cc1
The melting point of the first is higher: 99 to 101 °C for the first, 58 to 59 °C for the second.

Compared with CC(C)(CO)c1cc(NC(=O)C(C)(C)S(=O)(=O)CCC(F)(F)F)on1, COC(=O)c1c(C(F)F)nc(C(F)(F)F)c(C(=O)OC)c1CC(C)C is lower in melting point: 162 to 163 °C for the first, 36 to 37 °C for the second.

First: Cc1ccnc(CO)c1Br
Second: OCc1cncn1-c1ccccc1
The melting point of the first is lower: 75 to 77 °C for the first, 81 to 84 °C for the second.

Compared with COc1cc(NC2=NCC(c3ccccc3)O2)ccc1-c1cnco1 (stereo not drawn), COc1cc(/C=C/C(=O)Nc2ccccc2C(=O)O)ccc1OCc1cccnc1 is higher in melting point: 130 to 132 °C for the first, 245 to 251 °C for the second.

CC(C)C[C@H](C(=O)OCc1ccccc1)N1CC[C@]2(CCCN2C(=O)C(C)C)C1=O and O=C(OCc1ccccc1)[C@H](Cc1ccccc1)NC(=O)N1CCOCC1 cannot be ordered by melting point: 87 °C for the first, 85 to 87 °C for the second.

First: COc1cccc(C(O)c2cc(Cl)ccc2N(CC(N)=O)S(=O)(=O)c2ccc(OC)c(OC)c2)c1 (stereo not drawn)
Second: COc1cc(-c2nc3ccccc3n2Cc2c(Cl)cccc2Cl)cc(OC)c1OC
The melting point of the first is lower: 100 °C for the first, 157 °C for the second.

First: OCCn1nccc1-c1ccc(Oc2ccc(F)cc2)cc1
Second: Fc1ccc(-c2[nH]nc(Nc3ccccc3)c2-c2ccncc2)cc1
The melting point of the first is lower: 71 to 72 °C for the first, 218 to 219 °C for the second.

First: CCCCCCCCOc1ccc(CC(=O)[C@H]2CC[C@H](CCCCC)CC2)c(F)c1F
Second: CCCc1c(OCCCCCCCOc2ccc(C(=O)c3cccc(C(=O)O)c3)cc2CCC(=O)O)ccc2c1OCCC2=O
The melting point of the first is lower: 59 °C for the first, 152 to 153 °C for the second.

First: N#CC1(Cc2ccccc2)CCN(Cc2ccccc2)CC1
Second: O=C(NN1CCN(Cc2c[nH]c3ccccc23)CC1)c1ccccc1
The melting point of the first is lower: 92 °C for the first, 176 to 178 °C for the second.

Compared with Cc1cc(C)c(C)c(-c2cc3cnc(NCCCN4CCN(C)CC4)nc3nc2NC(=O)NC(C)(C)C)c1C, CN1C(=O)CCc2cccc(N3CCN(CCCCOc4ccc5c(n4)NC(=O)NCC5)CC3)c21 is lower in melting point: 185 to 198 °C for the first, 80 to 82 °C for the second.

Compared with CC(C)(C)OC(=O)NCCC(=O)NCc1cccc2c1C(=O)N(C1CCC(=O)NC1=O)C2=O (stereo not drawn), CC(C)(C)OC(=O)[C@@H]1CC[C@@H]2CN1C(=O)N2OCc1ccccc1 is lower in melting point: 96 to 98 °C for the first, 83 °C for the second.

First: CN(C(=O)On1ccnn1)c1ccccc1
Second: CC(C)OC(=O)Cn1c(-c2ccc(Cl)cc2)nc2cccnc21
The melting point of the first is lower: 105 to 106 °C for the first, 118 to 120 °C for the second.

Compared with COc1cc2[nH]c(=O)c(C(=O)O)nc2cc1-n1ccc(CNC(=O)Nc2ccc(C(=O)O)cc2)c1, Cn1cc2c(n1)-c1sccc1N(C(=O)c1ccc(NC(=O)c3ccc(Cl)cc3Cl)cc1)CC2 is lower in melting point: > 300 °C for the first, 265 to 267 °C for the second.

First: COc1cc2c(cc1-c1cc(F)ccc1F)NC(=O)CC(c1cccc(C#N)c1)=N2
Second: COCCNC(=O)c1cccc(-c2cccc3oc(Cc4cccc(C(F)(F)F)c4)cc23)c1
The melting point of the first is higher: 251 °C for the first, 91 to 92 °C for the second.

First: Cc1ccc(C(C)N(O)C(N)=S)s1 (stereo not drawn)
Second: Nc1cccc2c1OCC2
The melting point of the first is higher: 155 °C for the first, 70 to 72 °C for the second.

Compared with CCc1nc2cc(Cl)c(Cl)nc2n1-c1ccc(CCNC(=O)NS(=O)(=O)c2ccc(C)cc2)cc1, CCCCc1nc2ccc(C)c(C(=O)OCC)c2n1Cc1ccc(-c2ccccc2-c2nnn[nH]2)cc1 is lower in melting point: 188 to 189 °C for the first, 164 to 165 °C for the second.

First: CC(=O)Nc1c(C(=O)c2cccc(Cl)c2)[nH]c2cc(Cl)ccc12
Second: N=c1[nH]c2ccc(Cl)cc2c2nc(-c3ccco3)nn12
The melting point of the first is higher: 152 to 154 °C for the first, 131 to 133 °C for the second.

First: CCC1OCCn2c1nc(C(=O)NCc1ccc(F)cc1-n1ncnc1C)c(OCc1ccccc1)c2=O (stereo not drawn)
Second: COC(=O)c1ccc(Cn2c(=O)c3c(N4CCN(C)CC4)cc(Cl)cc3n(Cc3ccccc3)c2=O)cc1
The melting point of the first is higher: 163 °C for the first, 90 to 94 °C for the second.

Compared with N=c1sc2cc(OC(F)(F)F)ccc2n1CCCO, O=C1Nc2ccccc2C1C(=O)C(F)(F)F (stereo not drawn) is higher in melting point: 106 °C for the first, 184 °C for the second.

Compared with O=C(Nc1ccc([N+](=O)[O-])cc1O)NC(c1ccccc1)c1ccccc1, OCCC(c1ccccc1)C(O)(c1ccccc1)c1ccc(O)cc1 (stereo not drawn) is lower in melting point: 237 to 238 °C for the first, 192 to 194 °C for the second.

First: Nc1ccc2ccc(-c3ccc(Cl)cc3)nc2n1
Second: CC(CC(=O)O)c1ccc(-c2ccccc2F)cc1 (stereo not drawn)
The melting point of the first is higher: 130 °C for the first, 87 to 88 °C for the second.

First: CN(C)[C@H]1CC[C@@H](C(=O)N2CCC(c3[nH]nc4c3C(=O)c3c(NC(=O)NN5CCOCC5)cccc3-4)CC2)CC1
Second: O=C(Nc1ccc(Cl)cn1)c1cc(Cl)ccc1NCC1CCN(C2CCSC2)CC1 (stereo not drawn)
The melting point of the first is lower: 123 to 125 °C for the first, 178 to 181 °C for the second.

Compared with CCOC(=O)c1cc(C#N)c(C=O)nc1Nc1ccccc1, CCOC(=O)C(=CC=C(O)C(=O)O)Sc1ccccc1 is higher in melting point: 165 to 167 °C for the first, 172 °C for the second.

First: COc1ccc2c(c1)CCC1C3CC4OCCOC4C3(C)CC(=O)C21C (stereo not drawn)
Second: CC1=CC(O)C(OC(=O)c2cccc(N)c2)C(C)(C)CC1=O (stereo not drawn)
The melting point of the first is higher: 142 to 145 °C for the first, 121 to 123 °C for the second.

First: CCCN1C(=O)COc2cc(F)c(N=c3sc(=S)n4n3CCCC4)cc21
Second: CS(=O)(=O)c1ccc(-c2nc3cc(C4CCN(S(=O)(=O)CCCO)CC4)ccc3o2)c(F)c1
The melting point of the first is lower: 112 to 114 °C for the first, 204 to 206 °C for the second.

First: Cc1[nH]c(C=NNC(=O)c2ccc(O)cc2)c(C)c1Br
Second: CC1Nc2cc(NC(=O)c3ccc(-c4ccccc4)cc3)ccc2N1C (stereo not drawn)
The melting point of the first is lower: 235 °C for the first, 272 to 274 °C for the second.

Compared with CCCCN(C)C(=O)CSCCCCCOc1ccc(C2=C(c3ccccc3)CCCc3cc(O)ccc32)cc1, CN(CCOc1ccc(CC2SC(=O)NC2=O)cc1)C(=O)c1ccccc1 (stereo not drawn) is higher in melting point: 112 to 114 °C for the first, 139 to 142 °C for the second.

Compared with CCCc1nc(C(O)C(C)C)c(C(N)=O)n1Cc1ccc(-c2ccccc2-c2nnn[nH]2)cc1 (stereo not drawn), O=c1c(O)c(-c2ncn(Cc3ccc(F)cc3)n2)oc2ccccc12 is higher in melting point: 153 to 157 °C for the first, 260 to 262 °C for the second.

First: COc1ccc2c(c1)cc(-c1nnn(Cc3cccc(OCc4ccc5ccccc5n4)c3)n1)c(=O)n2C
Second: CN(C)CCCNS(=O)(=O)c1ccc(C(C)(C)c2cc(C(C)(C)CC(C)(C)C)cc(-n3nc4ccccc4n3)c2O)cc1
The melting point of the first is higher: 125 to 127 °C for the first, 96 to 101 °C for the second.

Compared with CC1(C)Cc2ccccc2C=[N+]1[O-], O=[N+]([O-])c1ccccc1NCc1ccccc1 is lower in melting point: 70 to 72 °C for the first, 65 to 67 °C for the second.

First: Cc1nc(-c2ccsc2)c2nc(-c3ccccc3)cc-2[nH]1
Second: O=c1[nH]c(-c2ccccc2)nc(-c2ccncc2)c1Br
The melting point of the first is lower: 232 to 233 °C for the first, > 300 °C for the second.

First: Cc1sc(C)c2c1CCC=C2c1cn(C(c2ccccc2)(c2ccccc2)c2ccccc2)cn1
Second: COC(=O)C(C)CC(=O)C(Cc1ccccc1)NC(=O)c1ccccc1 (stereo not drawn)
The melting point of the first is higher: 205 to 207 °C for the first, 97 to 98.5 °C for the second.

First: O=c1c(-c2ccccc2)c[nH]n1-c1ncccn1
Second: O=c1ccc(S(=O)(=O)n2ccc3ccccc32)n[nH]1
The melting point of the first is lower: 159 to 160 °C for the first, 169 to 170 °C for the second.

First: O=C(COc1ccccc1Cl)NCCO[N+](=O)[O-]
Second: O=C1c2ccccc2C(O)C1Cc1ncc(C(F)(F)F)cc1Cl (stereo not drawn)
The melting point of the first is lower: 57 to 58 °C for the first, 174 to 178 °C for the second.

First: Cc1cc(C2CCCC2)c(O)c(C2CCCC2)c1
Second: COC(=O)[C@H](Cc1ccc(OCCN2CCCCCC2)cc1)NC(=O)[C@@H]1CCCN1S(=O)(=O)c1ccc(C)cc1
The melting point of the first is higher: 78 °C for the first, 60 to 65 °C for the second.

First: Cc1cc(C2=NOC(c3cc(Cl)cc(Cl)c3)(C(F)(F)F)C2)ccc1C(=O)Nc1ncc(Cl)cn1 (stereo not drawn)
Second: O=C1C=C(c2ccc(C(F)(F)F)cc2C(F)(F)F)CO1
The melting point of the first is higher: 137 to 141 °C for the first, 116 to 117 °C for the second.

First: CC(C)S(=O)(=O)c1cnc2c(c1)nc(CC(C)(C)C)n2CC1CCOCC1
Second: COc1ccc(CCOc2ccc(C(=O)N/C(=C\c3ccc(SC)cc3)C(=O)NCCO)cc2)cc1
The melting point of the first is higher: 201 °C for the first, 61 to 63 °C for the second.

From a melting point compilation (Tetko et al.; mined from patent text by program, amines drawn as free bases though some values may be those of a salt)
